Test results reported in patent publication US20100304998A1, “Chemical Proteomic Assay for Optimizing Drug Binding to Target Proteins” (MARQUETTE UNIVERSITY, priority 2009, published 2010).

Experiments:
human liver proteome = experiment: CRAA affinity column target fishing with nanospray-LC/MS/MS, human liver proteome; type: binding; conditions: elution with free CRAA
[1] = target: T1, malate dehydrogenase (MDH) (Sus scrofa, UniProt P00346); experiment: 1H NMR STD (saturation transfer difference) binding assay, MDH; set-up: species or system porcine; conditions: CRAA 3 mM
T1 construct: malate dehydrogenase (porcine heart) were from Sigma Aldrich; purchased Sigma Aldrich; host or cells: porcine heart
T1 sequence (P00346 25-338): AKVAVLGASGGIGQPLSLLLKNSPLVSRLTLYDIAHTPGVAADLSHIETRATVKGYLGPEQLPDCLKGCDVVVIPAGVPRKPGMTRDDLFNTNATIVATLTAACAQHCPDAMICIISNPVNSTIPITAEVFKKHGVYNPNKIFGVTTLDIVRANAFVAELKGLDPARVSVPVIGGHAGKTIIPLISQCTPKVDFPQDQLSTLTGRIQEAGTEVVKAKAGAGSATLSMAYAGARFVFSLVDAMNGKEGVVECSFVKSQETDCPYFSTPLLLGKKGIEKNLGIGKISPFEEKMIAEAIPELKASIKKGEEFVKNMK
Protocol: ^1H NMR STD (saturation transfer difference) spectra for CRAA binding to either malate dehydrogenase (MDH) (FIG. 13A) or glutamate dehydrogenase (FIG. 13B) establishes that the CRAA scaffold binds proteins that were identified using the proteomic assay, thereby validing the method for identifying non-target proteins. Glutamate dehydrogenase (bovine liver, GDH) and malate dehydrogenase (porcine heart) were from Sigma Aldrich. Both experiments were performed on a 600 MHz Varian NMR system at 25° C. using the cyclonecyclnoe pulse sequence (a steady state NOE experiment) with 256 scans. On and off resonance irradiations were at 0.5 and −11 ppm respectively, performed for 4 seconds each. […] (See FIG. 13). In both cases, CRAA was present at 3 mM and the binding study was done in a 25 mM phosphate buffer at pH 7.6 with 250 ug GDH or 166 ug MDH in a total volume of 0.6 mLs. The use of STD assays in functional proteomic binding studies has been described (Yao and Sem, FEBS Lett. (2005) 579, 661-666, the content of which is incorporated herein by reference in its entirety). To verify that binding had occurred in the cofactor binding site, competition studies were also performed (not shown). […] To test this hypothesis, the competition was reversed where 3 mM NADP+ STD signal was monitored before and after adding CRAA (1 mM). […]

[2] = target: T2, glutamate dehydrogenase (GDH) (Bos taurus, UniProt P00366); experiment: 1H NMR STD (saturation transfer difference) binding assay, GDH; set-up: species or system bovine
T2 construct: Glutamate dehydrogenase (bovine liver, GDH); purchased Sigma Aldrich; host or cells: bovine liver
Protocol: ^1H NMR STD (saturation transfer difference) spectra for CRAA binding to either malate dehydrogenase (MDH) (FIG. 13A) or glutamate dehydrogenase (FIG. 13B) establishes that the CRAA scaffold binds proteins that were identified using the proteomic assay, thereby validing the method for identifying non-target proteins. Glutamate dehydrogenase (bovine liver, GDH) and malate dehydrogenase (porcine heart) were from Sigma Aldrich. Both experiments were performed on a 600 MHz Varian NMR system at 25° C. using the cyclonecyclnoe pulse sequence (a steady state NOE experiment) with 256 scans. On and off resonance irradiations were at 0.5 and −11 ppm respectively, performed for 4 seconds each. […] (See FIG. 13). In both cases, CRAA was present at 3 mM and the binding study was done in a 25 mM phosphate buffer at pH 7.6 with 250 ug GDH or 166 ug MDH in a total volume of 0.6 mLs. The use of STD assays in functional proteomic binding studies has been described (Yao and Sem, FEBS Lett. (2005) 579, 661-666, the content of which is incorporated herein by reference in its entirety). To verify that binding had occurred in the cofactor binding site, competition studies were also performed (not shown). Addition of 1 mM NADH to the MDH sample caused a decrease in STD signal for CRAA (3 mM) of 35%. The analogous competition with GDH (using NADP+ as competitor) produced no change in STD signal for CRAA—which might be due to higher affinity for […]. To test this hypothesis, the competition was reversed where 3 mM NADP+ STD signal was monitored before and after adding CRAA (1 mM). A decrease in the NADP+ STD signal of 50% was now observed, due to CRAA addition.

[3] = target: KCNQ1 and minK (KCNE1) potassium channel (Homo sapiens, UniProt P51787); conditions: cardiac delayed rectifier potassium channel of heart muscle cells; read-out: KD for block of the KCNQ1/minK (KCNE1) channel; cited from earlier work
ERG potassium channels = conditions: ERG channels expressed by neurons; cited from earlier work
KCNQ potassium channel = conditions: cited from earlier work
[4] = test system: potassium currents IA, IK, IAHP, IQ, IL; conditions: IQ and IL currents; cited from earlier work
[5] = target: T3, DHPR (dihydrodipicolinate reductase) (Escherichia coli, UniProt P04036); experiment: Covalent labeling of purified DHPR with NHS-CRAA, with NADH or PDC competitors (SDS-PAGE); type: binding, E. coli
T3 construct: made in house; host or cells: E. coli (pET11a DHPR expression construct)
Protocol: FIG. 8. SDS-PAGE gel of DHPR that has been labeled with NHS-CRAA active ester, but in the presence of increasing concentrations of either NADH or PDC (2,6-pyridine dicarboxylic acid) competitors, Lane 1, protein standard; Lanes 2-6, increasing NADH ([…]); Lanes 7-10, increasing PDC (1.1, 2.3, 4.5, 9.1 mM).
2 (NHS-CRAA) uptake into E. coli cells and labeling of DHPR. To assess whether 1 (CRAA) can make it across bacterial cell walls, and therefore whether 1 is a viable scaffold for anti-infective drug design efforts, experiments were performed to determine if its N-hydroxysuccinimide ester, 2 (NHS-CRAA; FIG. 2), could enter E. coli and label intracellular DHPR (dihydrodipicolinate reductase). DHPR is an anti-infective drug target, and is known to bind the CRAA scaffold (1)^21. The NHS-CRAA active ester (2)^35 was synthesized as in FIG. 2. The NHS (N-hydroxysuccinimide) group reacts with amines, and since it is attached to the linker position of 1 (where the acetic acid chain is attached), it should reside at the interface of the NADH and substrate binding sites^21 (FIG. 1), near lysine 163^36 (see FIG. 7). Indeed, DHPR is labeled with the NHS-CRAA (2) active ester, based on imaging of an SDS-PAGE gel of labeled protein (FIG. 8). Increasing NADH concentration appears to decrease band intensity while PDC has little effect up to 9 mM. […] Next, to explore whether cell wall penetration occurs, uptake of 2 was measured into E. coli that was expressing E. coli DHPR. Since we have recently shown that the CRAA scaffold (1) is bifunctional, in that it is itself weakly fluorescent^33, protein labeling could be monitored by fluorescence imaging of SDS-PAGE gels of crude cell extracts. […] That there is more labeling in cells expressing DHPR is evident based on the more intense color for cells expressing DHPR (FIG. 3c) and on fluorescence images of the cells (FIG. 3d).

[6] = test system: E. coli cells overexpressing DHPR; experiment: NHS-CRAA in-cell uptake and labeling study
Protocol: E. coli containing the pET11a DHPR expression construct was inoculated into 30 mL LB culture medium, growing overnight at 37° C., 225 rpm. The next day, 10 mL of this culture was added to two flasks (flasks A and B, each containing 800 mL LB medium with 50 μg/mL carbenicillin). The OD600 was monitored until it reached ˜1.0. To flask A was added 0.8 mL of a 0.4 M IPTG stock to start induction^58. Flask B was used as a control without induction. 5 hours later, cells were collected (centrifuged 10 minutes at 4,000 rpm) and washed once with 100 mM PBS buffer, pH 7.4. The Cells were then suspended in 100 mL of pH 7.4 PBS buffer (8 g NaCl, 0.2 g KCl, 1.44 g Na2HPO4, 0.24 g KH2PO4 in 1.0 L) and incubated for 5 minutes. Then, 1 mL NHS-CRAA ester (2) was added to each flask and incubated at room temperature for about 30 minutes (FIG. 3a). […] The gel was fluorescently imaged on a Kodak Image Station, to selectively detect 1 which has λmax for absorbance and emission at 465 nm and 535 nm^37. Cells were fluorescently imaged in PBS buffer after the wash (before lysis) using 495 nm/520 nm excitation/emission filters on the fluorescence microscope. Complementary fluorescence and bright field images may be shifted slightly relative to each other, because of bacterial motion between image captures. […]

T2 sequence (P00366 58-558): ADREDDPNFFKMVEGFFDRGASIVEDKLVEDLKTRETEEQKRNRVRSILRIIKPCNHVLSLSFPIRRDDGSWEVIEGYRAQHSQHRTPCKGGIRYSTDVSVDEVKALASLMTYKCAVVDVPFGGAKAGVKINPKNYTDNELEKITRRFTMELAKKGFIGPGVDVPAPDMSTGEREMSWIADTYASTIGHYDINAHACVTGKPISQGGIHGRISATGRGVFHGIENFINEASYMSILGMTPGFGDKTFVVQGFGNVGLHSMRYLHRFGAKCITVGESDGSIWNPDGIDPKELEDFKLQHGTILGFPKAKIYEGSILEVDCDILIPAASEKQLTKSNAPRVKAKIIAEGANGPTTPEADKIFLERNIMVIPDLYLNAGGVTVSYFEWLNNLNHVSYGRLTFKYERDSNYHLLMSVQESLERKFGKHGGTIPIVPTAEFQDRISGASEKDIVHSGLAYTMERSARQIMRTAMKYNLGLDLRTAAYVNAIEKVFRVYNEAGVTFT
T3 sequence (P04036 whole entry): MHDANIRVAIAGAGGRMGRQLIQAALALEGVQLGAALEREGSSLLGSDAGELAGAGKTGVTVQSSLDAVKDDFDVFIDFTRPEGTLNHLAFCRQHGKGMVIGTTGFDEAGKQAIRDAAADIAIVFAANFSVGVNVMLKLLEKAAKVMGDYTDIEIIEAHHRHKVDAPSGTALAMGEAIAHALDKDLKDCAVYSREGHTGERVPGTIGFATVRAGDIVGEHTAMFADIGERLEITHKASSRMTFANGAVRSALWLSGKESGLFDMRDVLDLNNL
KCNQ1 and minK (KCNE1) potassium channel, sequence (P51787 whole entry): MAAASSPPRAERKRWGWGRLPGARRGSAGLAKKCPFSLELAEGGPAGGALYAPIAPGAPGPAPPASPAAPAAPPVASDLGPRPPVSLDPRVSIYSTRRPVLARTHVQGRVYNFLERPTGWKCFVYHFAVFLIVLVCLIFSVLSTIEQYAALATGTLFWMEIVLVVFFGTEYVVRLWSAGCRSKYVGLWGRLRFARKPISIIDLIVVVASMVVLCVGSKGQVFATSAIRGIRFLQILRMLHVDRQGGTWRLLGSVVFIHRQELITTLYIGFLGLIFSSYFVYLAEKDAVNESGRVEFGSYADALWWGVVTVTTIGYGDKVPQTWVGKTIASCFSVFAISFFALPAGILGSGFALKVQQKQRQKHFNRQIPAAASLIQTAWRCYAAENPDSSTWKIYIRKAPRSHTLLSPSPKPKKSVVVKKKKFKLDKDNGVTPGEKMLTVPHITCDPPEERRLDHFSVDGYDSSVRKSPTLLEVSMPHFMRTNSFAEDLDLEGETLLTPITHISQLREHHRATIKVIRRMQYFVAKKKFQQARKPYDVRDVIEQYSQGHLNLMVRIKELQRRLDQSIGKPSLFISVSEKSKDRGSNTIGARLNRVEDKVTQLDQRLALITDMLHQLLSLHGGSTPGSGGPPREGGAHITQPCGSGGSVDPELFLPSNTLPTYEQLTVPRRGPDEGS

O=C(O)CN1C(=O)C(=Cc2ccc(O)c(O)c2)SC1=S [CRAA, 5-[(3,4-dihydroxyphenyl)methylene]-4-oxo-2-thioxo-3-thiazolidineacetic acid]
share of captured proteins that are NAD(P)(H)-binding proteins (human liver proteome): > 50%
binding to malate dehydrogenase by STD difference spectrum ([1]; 166 ug MDH, 25 mM phosphate pH 7.6, 25° C.): binds to protein
decrease in STD signal for CRAA on addition of NADH ([1]; 1 mM NADH competitor, MDH): 35%
binding to glutamate dehydrogenase by STD difference spectrum ([2]; CRAA 3 mM, 250 ug GDH, 25 mM phosphate pH 7.6, 25° C.): binds to protein
decrease in the NADP+ STD signal due to CRAA addition ([2]; GDH, 3 mM NADP+, CRAA 1 mM): 50%
change in STD signal for CRAA with NADP+ as competitor ([2]; GDH, NADP+ competitor): no change

O=C1c2ccccc2C(Cc2ccncc2)(Cc2ccncc2)c2ccccc21 [XE991]
Kd [3]: 11.1 ± 1.8 µM
effect on ERG potassium channels (ERG potassium channels): binds to and blocks the activity

O=C1c2ccccc2C(Cc2ccnc(F)c2)(Cc2ccnc(F)c2)c2ccccc21 [DMP543, 10, 10-Bis[(2-fluoro-4-pyridinyl)methyl]-9(10H)-anthracenone]
effect on the KCNQ potassium channel (KCNQ potassium channel): activate

O=C1N(c2ccccc2)c2ccccc2C1(Cc1ccncc1)Cc1ccncc1 [linopirdine]
concentration at which several other potassium currents are blocked [4]: above 10 μM

O=C(CN1C(=O)C(=Cc2ccc(O)c(O)c2)SC1=S)ON1C(=O)CCC1=O [NHS-CRAA, 5-[(3,4-dihydroxyphenyl)methylene]-4-oxo-2-thioxo-3-thiazolidineacetic N-hydroxysuccinimide ester]
effect of PDC on labeling of DHPR ([5]; PDC up to 9 mM): little effect
covalent labeling of purified DHPR ([5]; imaging of SDS-PAGE gel): labeled
effect of NADH on labeling of DHPR ([5]; increasing NADH concentration): partially blocked
crossing of the bacterial cell wall ([6]; intact E. coli cells overexpressing DHPR): can cross the cell wall
labeling of DHPR within intact E. coli cells ([6]; intact cells overexpressing DHPR, about 30 minutes, room temperature, fluorescence imaging of SDS-PAGE gel): significant labeling
